How the values were obtained:
[1] = Isomerization without enzyme (Example 3), glucose; settings: remark (1): initial pH 8.0-8.53; for Isomerization ratio Glucose NaOH: blank 32.3%; for Isomerization ratio Glucose Electrolytic water: blank 2.1-3.1%
Procedure: 200 μl of the 14% or 28% glucose solution and 200 μl of the organogermanium compound solution (pH 8.00 or 8.53) were placed in a small test tube. Also, 200 μl of the 14% or 28% glucose solution and 200 μl of the weakly alkaline electrolytic water were placed in a small test tube. Each test tube was thoroughly shaken and then placed in a water bath of 80° C. to give rise to a reaction. […] Thereafter, the mixture was diluted 100-fold with deionized water to determine the amount of formed fructose and the amount of residual glucose by high-performance liquid chromatography using 7A (a column) manufactured by Shimadzu Corp. […]

[2] = Isomerization without enzyme (Example 3), lactose; settings: remark (3): reaction time 6 h, initial pH 10.0-11.0; for Isomerization ratio Lactose NaOH: blank 34.0-38.6%; for Isomerization ratio Lactose Electrolytic water: blank 0-0.4%
[3] = Isomerization without enzyme (Example 3), xylose; settings: remark (2): reaction time 6 h, initial pH 10.0-10.6; for Isomerization ratio Xylose NaOH: blank 3.9-19.5%; for Isomerization ratio Xylose Electrolytic water: blank 0.4-1.2%
Procedure: [The procedure below names another target; the source says it served here with some conditions changed.] (§1) 200 μl of the 14% or 28% glucose solution and 200 μl of the organogermanium compound solution (pH 8.00 or 8.53) were placed in a small test tube. Also, 200 μl of the 14% or 28% glucose solution and 200 μl of the weakly alkaline electrolytic water were placed in a small test tube. Each test tube was thoroughly shaken and then placed in a water bath of 80° C. to give rise to a reaction. 1-3 hours later, 50 μl of the reaction mixture was added to 50 μl of 0.5N HClO4 to terminate the reaction. Thereafter, the mixture was diluted 100-fold with deionized water to determine the amount of formed fructose and the amount of residual glucose by high-performance liquid chromatography using 7A (a column) manufactured by Shimadzu Corp.
Other compounds represented by formula (I) were subjected to 3-hour isomerization in the same manner as in Example 2.

[4] = Isomerization without enzyme (Example 3), mannose; settings: remark (2): reaction time 6 h, initial pH 10.0-10.6; for Isomerization ratio Mannose NaOH: blank 3.9-19.5%; for Isomerization ratio Mannose Electrolytic water: blank 0.4-1.2%
[5] = Isomerization without enzyme (Example 3), ribose; settings: remark (2): reaction time 6 h, initial pH 10.0-10.6; for Isomerization ratio Ribose NaOH: blank 3.9-19.5%; for Isomerization ratio Ribose Electrolytic water: blank 0.4-1.2%
[6] = Isomerization without enzyme (Example 3), arabinose; settings: remark (2):, initial pH 10.0-10.6; for Isomerization ratio Arabinose NaOH: blank 3.9-19.5%; for Isomerization ratio Arabinose Electrolytic water: blank 0.4-1.2%
[7] = Isomerization without enzyme (Example 3), maltose; settings: remark (3): reaction time 6 h, initial pH 10.0-11.0; for Isomerization ratio Maltose NaOH: blank 34.0-38.6%; for Isomerization ratio Maltose Electrolytic water: blank 0-0.4%
[8] = system: glucose isomerase; test: Enzymatic isomerization of glucose into fructose in presence of organogermanium compound (Example 1); assay type: biochemical, Streptomyces griseofuscus S-41; settings: 60° C., pH 8.0, substrate solution 40% glucose and 1.2M organogermanium compound, blank 50%
Procedure: A solution containing 40% glucose and 1.2M organogermanium compound was prepared according to the following procedure. 0.8 g of anhydrous glucose was dissolved in 0.8 ml of deionized water. To the solution was added, in small portions, 0.407 g of the organogermanium compound (1) as an isomerization accelerator of the present invention [a compound represented by formula (II) wherein n=1, R1 =R2 =R3 and X1 =OH] while the pH of the solution was maintained at very weak alkalinity, to completely dissolve the compound in the solution. Thereto was added 4.9 mg of magnesium sulfate, and the pH of the resulting mixture was adjusted to 8.0. Then, deionized water was added to make the total volume 2.0 ml, whereby a substrate solution was prepared.
Two other substrate solutions containing the organogermanium compounds (18) [a compound represented by formula (II) wherein n=1, R1 =R2 =H, R3 =NH2 and X1 =OH] and (23) [a compound represented by formula (II) wherein n=1, R1 =H, R2 =C6 H5, R3 =NH2 and X1 =OH], respectively, were prepared in the same manner as above except that the organogermanium compounds (18) and (23) were used in amounts of 0.443 g and 0.638 g, respectively (these amounts corresponded to 1.2M of germanium).
An isomerization enzyme (glucose isomerase) extracted from the cells of Streptomyces griseofuscus S-41 was purified according to a known method using an ion exchange column, a gel filtration column or the like, until a single band was obtained electrophoretically. The resulting purified enzyme was used as a standard enzyme.
In a small test tube were placed 0.7 ml of the above substrate solution, 0.1 ml of a 200 mM MOPS buffer solution (pH 8.0) and 0.2 ml of a solution containing the above-prepared standard enzyme (5.69 mg/ml). […] The amount of formed fructose in the microvial was determined by high-performance liquid chromatography using a column [LC7A, SCR-101 (N) manufactured by Shimadzu Corp.] to examine the change with time, of ratio of isomerization of glucose into fructose.

[9] = Isomerization of glucose without enzyme, weakly alkaline electrolytic water or NaOH (Example 2)
Procedure: Water was passed through an apparatus for electrolysis [e.g. Microcluster (trade name) manufactured by Asahi Glass Co., Ltd.]. The alkaline portion of the resulting electrolytic water was taken to use as a weakly alkaline electrolytic water.
14 g or 28 g of anhydrous glucose was dissolved in about 80 ml of the weakly alkaline electrolytic water prepared above. The same electrolytic water was further added to make the total volume 100 ml, whereby a 14% glucose solution and a 28% glucose solution were prepared. The 14% glucose solution had pH 9.1 and the 28% glucose solution had pH 8.61, right after the preparation.
1.847 g of the organogermanium compound (18) was weighed and added to about 2 ml of deionized water. The mixture was made weakly alkaline (pH 8.00 or 8.53) with a small amount of sodium hydroxide. The same deionized water was further added to make the total volume of 3 ml. The final concentration of the compound (18) in the solution was 1.67M.
as §1

Structure (SMILES)	Isomerization ratio Glucose NaOH [1] [%]	Isomerization ratio Glucose Electrolytic water [1] [%]	Isomerization ratio Lactose NaOH [2] [%]	Isomerization ratio Lactose Electrolytic water [2] [%]	Isomerization ratio Xylose NaOH [3] [%]	Isomerization ratio Xylose Electrolytic water [3] [%]	Isomerization ratio Mannose NaOH [4] [%]	Isomerization ratio Mannose Electrolytic water [4] [%]	Isomerization ratio Ribose NaOH [5] [%]	Isomerization ratio Ribose Electrolytic water [5] [%]	Isomerization ratio Arabinose NaOH [6] [%]	Isomerization ratio Arabinose Electrolytic water [6] [%]	Isomerization ratio Maltose NaOH [7] [%]	Isomerization ratio Maltose Electrolytic water [7] [%]	isomerization ratio in equilibrium [8] [%]	Isomerization ratio (%) ([9]; Run 1 (Ge), glucose concentration 14%, pH of reaction mixture 7.17, electrolytic water, 80° C., 1-3 hours)	Isomerization ratio (%) ([9]; Run 3 (Ge), glucose concentration 7%, pH of reaction mixture 7.52, electrolytic water, 80° C., 1-3 hours)	Isomerization ratio (%) ([9]; Run 5 (Ge), glucose concentration 14%, pH of reaction mixture 7.81, electrolytic water, 80° C., 1-3 hours)	Isomerization ratio (%) ([9]; Run 7 (Ge), glucose concentration 7%, pH of reaction mixture 8.15, electrolytic water, 80° C., 1-3 hours)	Isomerization ratio (%) ([9]; Run 9 (Na, Ge), sodium hydroxide, glucose concentration 14%, pH of reaction mixture 8.61, 80° C.)
CC([CH2][Ge](=[O])[O][Ge](=[O])[CH2]C(C)C(=O)O)C(=O)O (centres unmarked) [Compound 3]	96.3	86.2	74.1	28.9	24.5	7.6	21.3	9.3	30.0	17.4	18.5	10.2	53.7	43.7						
C[CH](CC(=O)O)[Ge](=[O])[O][Ge](=[O])[CH](C)CC(=O)O (centres unmarked) [Compound 2]	97.9	95.8	68.3	43.4	20.3	7.2	22.6	11.4	41.8	12.8	20.3	10.1	67.4	44.4						
NC(C(=O)O)[CH](c1ccccc1)[Ge](=[O])[O][Ge](=[O])[CH](c1ccccc1)C(N)C(=O)O (centres unmarked) [Compound 23]															99					
NC([CH2][Ge](=[O])[O][Ge](=[O])[CH2]C(N)C(=O)O)C(=O)O (centres unmarked) [Compound 18]															80	48.0	73.1	65.0	94.7	98.9
CC(C(=O)O)[CH](C)[Ge](=[O])[O][Ge](=[O])[CH](C)C(C)C(=O)O (centres unmarked) [Compound 4]	96.4	77.6	66.4	17.7	22.3	7.0	22.4	10.6	36.3	10.3	14.3	7.0	46.5	36.2						
C[C](C)(CC(=O)O)[Ge](=[O])[O][Ge](=[O])[C](C)(C)CC(=O)O [Compound 5]	93.4	75.3	68.8	17.2	20.3	6.1	20.5	9.7	37.6	8.6	17.8	3.4	69.4	38.4						
O=C(O)C[CH](c1ccccc1)[Ge](=[O])[O][Ge](=[O])[CH](CC(=O)O)c1ccccc1 (centres unmarked) [Compound 6]	94.8	83.8	73.6	15.5	33.2	8.3	22.8	16.4	40.1	11.3	24.4	13.4	69.3	20.0						
